This passage reports Ki and IC50 results from patent publication US5646000A, “Compounds and methods for identifying activated platelets” (Merck & Co., Inc., priority 1994, dated 1997).

Molecules are shown by their SMILES. Read-outs that look alike come from different tables or passages of the source. Some results are limits rather than exact numbers.

The target of assay [1] is active form of GP IIb/IIIa (Homo sapiens, UniProt P05106+P08514). Put plainly: Fluorescence displacement of probe 2-8 from active form of purified GP IIb/IIIa. The class given is binding. The method, then: The purified glycoprotein IIb/IIIa (final concentration 0.64 μM, active form which binds to RGDS affinity column) was mixed with fluorescent antagonist 2-8 (final concentration 1 μM) in a fluorescence cell and fluorescence recorded (excitation wavelength 340 nm, emission range 360-600 nm).
Chain of active form of GP IIb/IIIa (P08514 32-887 limits assumed): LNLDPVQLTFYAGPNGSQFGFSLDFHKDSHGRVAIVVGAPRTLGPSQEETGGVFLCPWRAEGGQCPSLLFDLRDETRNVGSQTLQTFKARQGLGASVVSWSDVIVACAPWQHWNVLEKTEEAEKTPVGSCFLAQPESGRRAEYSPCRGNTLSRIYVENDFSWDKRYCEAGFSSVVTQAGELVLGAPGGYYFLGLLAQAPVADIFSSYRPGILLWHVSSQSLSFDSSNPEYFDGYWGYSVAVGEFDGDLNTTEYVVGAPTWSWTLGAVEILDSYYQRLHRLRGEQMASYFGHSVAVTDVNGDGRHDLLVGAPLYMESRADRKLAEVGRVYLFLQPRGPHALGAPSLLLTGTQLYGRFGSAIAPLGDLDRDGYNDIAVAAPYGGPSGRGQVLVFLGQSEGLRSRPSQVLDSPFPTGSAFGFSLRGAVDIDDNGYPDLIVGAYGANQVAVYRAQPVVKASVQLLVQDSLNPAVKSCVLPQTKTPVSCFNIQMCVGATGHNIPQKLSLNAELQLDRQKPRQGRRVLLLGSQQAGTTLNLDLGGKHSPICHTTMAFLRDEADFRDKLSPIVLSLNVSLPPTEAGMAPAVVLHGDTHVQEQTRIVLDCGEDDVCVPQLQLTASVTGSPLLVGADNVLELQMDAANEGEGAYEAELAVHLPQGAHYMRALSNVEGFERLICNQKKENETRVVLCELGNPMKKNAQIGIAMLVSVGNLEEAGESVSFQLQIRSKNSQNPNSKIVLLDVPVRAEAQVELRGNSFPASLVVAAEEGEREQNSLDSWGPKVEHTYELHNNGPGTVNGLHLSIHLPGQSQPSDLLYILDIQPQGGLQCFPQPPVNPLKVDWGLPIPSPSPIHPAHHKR
Chain of active form of GP IIb/IIIa (P08514 891-1039 partner limits assumed): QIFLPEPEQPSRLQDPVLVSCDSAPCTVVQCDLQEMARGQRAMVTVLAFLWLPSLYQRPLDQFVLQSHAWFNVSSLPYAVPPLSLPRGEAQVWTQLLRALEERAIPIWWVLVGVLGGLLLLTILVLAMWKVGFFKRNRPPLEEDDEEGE
Chain of active form of GP IIb/IIIa (P05106 27-788): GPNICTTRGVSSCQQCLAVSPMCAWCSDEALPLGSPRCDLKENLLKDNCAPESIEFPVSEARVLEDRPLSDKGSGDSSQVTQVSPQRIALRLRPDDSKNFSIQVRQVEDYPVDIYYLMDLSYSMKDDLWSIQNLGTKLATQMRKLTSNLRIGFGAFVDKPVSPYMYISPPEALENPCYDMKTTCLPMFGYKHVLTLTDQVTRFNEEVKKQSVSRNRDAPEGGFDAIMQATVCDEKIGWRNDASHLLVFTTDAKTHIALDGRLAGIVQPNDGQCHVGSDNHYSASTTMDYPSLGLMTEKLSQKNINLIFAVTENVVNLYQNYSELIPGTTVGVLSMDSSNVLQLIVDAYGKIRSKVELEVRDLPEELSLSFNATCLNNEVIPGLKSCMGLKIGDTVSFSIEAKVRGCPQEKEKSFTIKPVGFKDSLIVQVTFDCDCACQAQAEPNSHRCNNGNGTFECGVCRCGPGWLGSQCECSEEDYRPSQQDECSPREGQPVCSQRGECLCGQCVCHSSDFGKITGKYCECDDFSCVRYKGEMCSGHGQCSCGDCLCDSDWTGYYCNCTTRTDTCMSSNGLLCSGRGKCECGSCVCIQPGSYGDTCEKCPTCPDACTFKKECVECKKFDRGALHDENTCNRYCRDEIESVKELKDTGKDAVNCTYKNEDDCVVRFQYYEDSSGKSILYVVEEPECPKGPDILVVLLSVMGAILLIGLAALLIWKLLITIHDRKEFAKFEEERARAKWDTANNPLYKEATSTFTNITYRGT

Another assay concerns ADP-stimulated platelets. Put plainly: Fibrinogen Receptor Antagonist Assay: ADP-stimulated platelet aggregation (gel-filtered human platelets). The class given is cell-based. The settings on record: gel-filtered human platelets 2×10^8 per ml, fibrinogen 100 μg/ml, Ca^2+ 1 mM, 10 μM ADP, 37° C. The method, then:
The fibrinogen receptor antagonist activity is based on evaluation of inhibition of ADP-stimulated platelets. Aggregation requires that fibrinogen bind to and occupy the fibrinogen receptor site. Inhibitors of fibrinogen binding inhibit aggregation.
Platelet aggregation was measured at 37° C. in a Chronolog aggregometer. The reaction mixture contained gel-filtered human platelets (2×10^8 per ml), fibrinogen (100 μg/ml), Ca^2+ (1 mM), and the compound to be tested. The aggregation was initiated by adding 10 μM ADP after the other components had been added. The reaction was allowed to proceed for at least 2 minutes.

Assay [2] concerns the target inactive form of GP IIb/IIIa (unactivated GP IIb/IIIa) (Homo sapiens, UniProt P05106+P08514). Nature of the assay: Fluorescence displacement of probe 2-8 from inactive (unactivated) form of GP IIb/IIIa. The class given is binding.
Where [3] appears, read: unactivated GP IIb/IIIa (Table 1), read-out: Ki (nM) (unactivated GP IIb/IIIa).

Chain of inactive form of GP IIb/IIIa (unactivated GP IIb/IIIa) (P08514 32-887 limits assumed): as the sequence (P08514 32-887 limits assumed) above
Chain of inactive form of GP IIb/IIIa (unactivated GP IIb/IIIa) (P08514 891-1039 partner limits assumed): as the sequence (P08514 891-1039 partner limits assumed) above
Chain of inactive form of GP IIb/IIIa (unactivated GP IIb/IIIa) (P05106 27-788): as the sequence (P05106 27-788) above

Consider `CN(C)c1cccc2c(S(=O)(=O)N[C@@H](CNC(=O)c3ccc4c(c3)C(=O)N(CCC3CCNCC3)C4)C(=O)O)cccc12` [Compound 2-8, 1H-Isoindole-5-carboxamide, 2,3-dihydro-N-[2(S)-dansylamino-3-aminopropionic acid]-2-[2-(4-piperidinyl)ethyl]-3-oxo], for which, in assay [1] (active form of GP IIb/IIIa, binds to RGDS affinity column, read-out: Ki of fluorescence antagonist 2-8 (used for the calculation)), the Ki is 3.7 nM.
Broadly, the IC50 is the concentration that gives 50% inhibition. Read a low IC50 as greater potency. In the assay on ADP-stimulated platelets, `O=C(O)CCNC(=O)c1ccc2c(c1)C(=O)N(CCC1CCNCC1)C2` [Compound A, 2,3-Dihydro-N-(2-carboxyethyl)-2-[2-(4-piperidinyl)ethyl]-3-oxo-1-H-isoindole-5-carboxamide] had an IC50 of 27 nM. The Ki in assay [2] (setting [3]) was determined as 99 nM.
For `O=C(O)C[C@@H](CCc1c[nH]c2ccccc12)NC(=O)CNC(=O)CCCC1CCNCC1` [Compound B, Pib-Gly-3(R)-[2(indol-3-yl)ethyl]β-alanine hydrogen chloride], the half-inhibitory concentration (IC50) with ADP-stimulated platelets was determined as 94 nM. Besides, the Ki turned out to be 4 nM in assay [1] (GP IIb/IIIa 0.64 μM, probe 2-8 1 μM, excitation 340 nm, change in fluorescence at 550 nm, read-out: Ki for nonfluorescent antagonist toward the active form of GP IIb/IIIa) and 470 nM in assay [2] (inactive form, does not bind to RGDS affinity column, displacement of 2-8, read-out: Ki on inactive form of GP IIb/IIIa).
In the assay with ADP-stimulated platelets, `CCCCS(=O)(=O)N[C@@H](CNC(=O)c1ccc2c(c1)C(=O)N(CCC1CCNCC1)C2)C(=O)O` [Compound D, 1-H-isoindole-5-carboxamide, 2,3 dihydro-N-[3-(2(S)-n-butylsulfonylamino)propionic acid]-2-[2-(4-piperidinyl)ethyl]-3-oxo] gave a 50% inhibitory concentration (IC50) of 21 nM. For the same compound, the Ki in assay [2] (setting [3]) worked out at 2.4 nM.
On the same counts, the results for `O=C(NC[C@H](NS(=O)(=O)c1cccnc1)C(=O)O)c1cc2cc(CCC3CCNCC3)sc2s1` [Compound E, 5-[2-(Piperidin-4-yl)ethyl]thieno[2,3-b]thiophene-2-N-[3-2(S)-(3-pyridylsulfonylamino)propionic acid] carboxamide] are 8 nM and not above 2.7 nM.
